Values of other authors as cited in patent US11904002B2, “Construction and methods of use of a therapeutic cancer vaccine library comprising fusion-specific vaccines” (BostonGene Corporation, priority 2016, dated 2024).

Tested on: CD8+ T-cells
Conditions: CD8+ T-cells generated as a consequence of anti-PD1 treatment; murine MHC H-2Kb

Row | Sequence | recognition by CD8+ T-cells
1 | ITYTWTRL | targets of CD8+ T-cells
2 | VGFNFRTL | targets of CD8+ T-cells
